Data on 8 compounds can be found in publication PMC8326492, “Novel Mannich bases with strong carbonic anhydrases and acetylcholinesterase inhibition effects: 3-(aminomethyl)-6-{3-[4-(trifluoromethyl)phenyl]acryloyl}-2(3H)-benzoxazolones” (Turkish Journal of Chemistry, 2021).

The target in one test is hCA II (Homo sapiens, UniProt P00918). Nature of the test: Carbonic anhydrase inhibition assay (esterase, p-nitrophenylacetate), hCA II.
The next test concerns the target T1, AChE (Electrophorus electricus, UniProt O42275).
T1 construct: AChE enzyme, obtained from electric eel; from tissue; host or cells: electric eel
In words: biochemical. The following applies: electric eel AChE; mean from three different assays. As for the experimental part: Acetylcholinesterase enzyme inhibition assay was performed according to our previous studies. […] The substrates of acetylthiocholine iodide (AChI) and 5,5’-dithiobis(2-nitro-benzoic acid) (DTNB) was used for cholinergic enzymatic reaction. For this purpose, 1 mL of Tris / HCl buffer (1.0 M, pH 8.0) and 10 μL of different concentrations of sample solution were dissolved in deionized water. Then, an aliquot of (50 μL) AChE enzyme was transferred and incubated at room temperature for 10 min. After the incubation period, an aliquot of DTNB (0.5 mM, 50 μL) was added. Then, the enzymatic reaction was started by adding 50 μL of AChI (10 mM).

Another test deals with hCA I (Homo sapiens, UniProt P00915). In words: biochemical.
hCA I, sequence (P00915 whole entry): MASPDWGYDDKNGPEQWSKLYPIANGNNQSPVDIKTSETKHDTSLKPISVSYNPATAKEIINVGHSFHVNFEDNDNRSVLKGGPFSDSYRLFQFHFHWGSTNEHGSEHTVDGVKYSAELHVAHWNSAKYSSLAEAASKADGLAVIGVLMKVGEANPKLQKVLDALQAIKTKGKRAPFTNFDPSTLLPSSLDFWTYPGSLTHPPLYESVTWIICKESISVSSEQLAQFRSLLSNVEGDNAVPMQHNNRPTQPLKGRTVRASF

T1 sequence (O42275 24-633): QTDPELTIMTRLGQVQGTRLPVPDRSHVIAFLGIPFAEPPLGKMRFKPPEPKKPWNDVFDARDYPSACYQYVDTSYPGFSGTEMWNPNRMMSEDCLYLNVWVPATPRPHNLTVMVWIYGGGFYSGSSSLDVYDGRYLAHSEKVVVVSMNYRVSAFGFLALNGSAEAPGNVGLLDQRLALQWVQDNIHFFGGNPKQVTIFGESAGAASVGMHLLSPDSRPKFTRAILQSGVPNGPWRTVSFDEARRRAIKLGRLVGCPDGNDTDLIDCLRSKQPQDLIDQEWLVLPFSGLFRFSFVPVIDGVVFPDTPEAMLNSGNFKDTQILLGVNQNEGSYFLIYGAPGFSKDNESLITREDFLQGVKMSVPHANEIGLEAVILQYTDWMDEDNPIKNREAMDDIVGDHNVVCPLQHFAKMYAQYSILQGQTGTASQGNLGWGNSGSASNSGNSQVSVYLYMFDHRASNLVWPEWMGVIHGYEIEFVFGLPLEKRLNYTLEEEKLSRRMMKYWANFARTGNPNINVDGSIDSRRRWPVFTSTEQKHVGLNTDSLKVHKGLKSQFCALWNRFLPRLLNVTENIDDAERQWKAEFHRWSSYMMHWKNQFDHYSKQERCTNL
Procedure for hCA II: CA inhibition assay was recorded according to previous studies [4,10,27,49,60–64]. The hCA I and II isoenzymes were purified from human red blood cells by sepharose-4B-L-tyrosine-sulfanilamide affinity chromatography [65], which was used as an affinity matrix for selective retention of both hCA isoenzymes [27,66]. […] After sepharose-4B-L-tyrosine-sulfanilamide affinity chromatography, the enzyme quantity was spectrophotometrically measured at 280 nm [68]. […] Purity controls of both CA isoenzymes were performed according to the Laemmli procedure as described in previous studies. Both isoenzymes were visualized by two different acrylamide concentrations (10% and 3% acrylamide), containing 0.1% sodium dodecyl sulfate (SDS) [69,70].

What is called Ki is a dissociation constant, usually derived from enzyme kinetics or from competition with a known ligand. Higher therefore signals lower affinity. With `O=C(C=Cc1ccc(C(F)(F)F)cc1)c1ccc2c(c1)oc(=O)n2CN1CCCC1` [Compound 1d, 3-(Pyrrolidin-1-ylmethyl)-6-{3-[4-(trifluoromethyl)phenyl]acryloyl}benzoxazol-2(3H)-one], the Ki at hCA II worked out at 0.019 ± 0.003 µM; on AChE it was 0.0976 ± 0.0144 µM; at hCA I, 0.0123 ± 0.0012 µM.

On to `O=C(C=Cc1ccc(C(F)(F)F)cc1)c1ccc2c(c1)oc(=O)n2CN1CCOCC1` [Compound 1f, 3-(Morpholinomethyl)-6-{3-[4-(trifluoromethyl)phenyl]acryloyl}benzoxazol-2(3H)-one], for which the figures for the Ki at hCA II, at AChE and at hCA I were 0.041 ± 0.0055 µM, 0.0352 ± 0.002 µM and 0.0204 ± 0.0017 µM, respectively.

Take `O=C(/C=C/c1ccc(C(F)(F)F)cc1)c1ccc2[nH]c(=O)oc2c1` [Compound 1, (E )-6-{3-[4-(trifluoromethyl)phenyl]acryloyl}benzoxazol-2(3H )-one]: the Ki on hCA II was found to be 0.0336 ± 0.0045 µM; at AChE it was 0.159 ± 0.0335 µM; at hCA I, 0.154 ± 0.0093 µM.

Consider `CCCN(CCC)Cn1c(=O)oc2cc(C(=O)C=Cc3ccc(C(F)(F)F)cc3)ccc21` [Compound 1c, 3-[(Dipropylamino)methyl]-6-{3-[4-(trifluoromethyl)phenyl]acryloyl}benzoxazol-2(3H)-one], for which the Ki on hCA II is 0.0246 ± 0.0047 µM; at AChE it was 0.116 ± 0.032 µM; at hCA I, 0.0223 ± 0.0023 µM.

Consider `CCN(CC)Cn1c(=O)oc2cc(C(=O)C=Cc3ccc(C(F)(F)F)cc3)ccc21` [Compound 1b, 3-[(Diethylamino)methyl]-6-{3-[4-(trifluoromethyl)phenyl]acryloyl}benzoxazol-2(3H)-one], for which the Ki on hCA II stood at 0.0376 ± 0.0043 µM; at AChE, 0.142 ± 0.0221 µM; at hCA I, 0.0368 ± 0.0077 µM.

In the case of `CN1CCN(Cn2c(=O)oc3cc(C(=O)C=Cc4ccc(C(F)(F)F)cc4)ccc32)CC1` [Compound 1g, 3-[(4-Methylpiperazin-1-yl)methyl]-6-{3-[4-(trifluoromethyl)phenyl]acryloyl} benzoxazol-2(3H)-one], the Ki at hCA II is 0.0086 ± 0.0019 µM; on AChE, 0.0485 ± 0.0102 µM; at hCA I, 0.053 ± 0.0018 µM.

In the case of `CN(C)Cn1c(=O)oc2cc(C(=O)C=Cc3ccc(C(F)(F)F)cc3)ccc21` [Compound 1a, 3-[(Dimethylamino)methyl]-6-{3-[4-(trifluoromethyl)phenyl]acryloyl}benzoxazol-2(3H)-one], the Ki on hCA II came out at 0.0233 ± 0.002 µM; at AChE, 0.13 ± 0.0176 µM; at hCA I, 0.0314 ± 0.0053 µM.

As for `O=C(C=Cc1ccc(C(F)(F)F)cc1)c1ccc2c(c1)oc(=O)n2CN1CCCCC1` [Compound 1e, 3-(Piperidin-1-ylmethyl)-6-(3-(4-(trifluoromethyl)phenyl)acryloyl)benzoxazol-2(3H)-one], the Ki was found to be 0.0181 ± 0.0035 µM on hCA II, 0.084 ± 0.0192 µM on AChE and 0.0276 ± 0.0029 µM at hCA I.
